Measurements from PubChem BioAssay AID742 (SRMLSC, 2007).
Active and inactive are the calls of the source. How the calls were made is not given here.

Assays:
[1] = Her2 expression suppression with viability readout – cell-based, AlphaScreen, CellTiter-Glo viability, dose response (AID 742); conditions: human cells, Her2 expression AlphaScreen; CTG viability; at 9.62 µM (top of the series)
[2] = tested on: human cells, Her2 expression AlphaScreen; CTG viability; experiment: as above; conditions: viability, CellTiter-Glo

Row | SMILES | Her2 inhibition [1] | EC50 [2]
1 | Cc1cc(-c2ccccc2)nc(=O)[nH]1 | -18.4% (inactive) | > 9.62 µM
2 | O=c1[nH]c(Nc2nc3ccccc3o2)nc2c1CCCC2 | -16.5% (inactive) | > 9.62 µM
3 | CCN(CC(=O)NCc1cccs1)c1nnnn1-c1ccccc1 | -22.3% (inactive) | > 9.62 µM
4 | CCOC(=O)c1ccc(N=c2sc(C(=O)OC)cc(=O)n2Cc2ccco2)cc1 | -0.92% (inactive) | > 9.62 µM
5 | Cc1ccc(C2CC(=O)N3CN(c4ccc(Br)cc4)CSC3=C2C#N)o1 (centres undefined) | 16% (inactive) | > 9.62 µM
6 | CCOC(=O)CSc1nnc(-c2ccc(NS(=O)(=O)c3ccc(C)cc3)cc2)o1 | 7.81% (inactive) | > 9.62 µM
7 | COc1cc2c(C#N)c(N3CCN(c4ccccc4OC)CC3)nc(N)c2c(N)n1 | -7.21% (inactive) | > 9.62 µM
8 | O=C(CCCCCn1c(=S)[nH]c2cc3c(cc2c1=O)OCO3)N1CCN(C2CCCCC2)CC1 | 4.12% (inactive) | > 9.62 µM
9 | Cc1c(NC(=O)c2cccc(F)c2)c(=O)n(-c2ccccc2)n1C | 10.6% (inactive) | > 9.62 µM
10 | O=C(Cc1cscn1)c1ccc(O)cc1O | 3.58% (inactive) | > 9.62 µM
11 | COC(=O)CS(=O)(=O)c1nnc([C@H](Cc2ccccc2)NC(=O)OC(C)(C)C)o1 | -2.38% (inactive) | > 9.62 µM
12 | O=C(c1ccc(F)cc1)C(CN1CCOCC1)c1ccccc1 (centres undefined) | 28.5% (inactive) | > 9.62 µM
13 | Cn1nnnc1SCC(=O)Nc1c(Cl)cccc1Cl | -18.1% (inactive) | > 9.62 µM
14 | O=C(Nc1nccs1)C1C2/C=C\CCCCC21 (centres undefined) | -0.67% (inactive) | > 9.62 µM
15 | CCc1nc(C)ccc1OCC(=O)NCCCN(C)C | -3% (inactive) | > 9.62 µM
16 | N=c1n(CCO)c2ccccc2n1CCOc1ccc(Cl)cc1Cl | -2.09% (inactive) | > 9.62 µM
17 | O=C(Oc1ccc2c(c1)OCO2)c1cc2c(s1)CCC2 | 41.1% (inactive) | > 9.62 µM
18 | Clc1ccc(COC(Cn2ccnc2)c2ccc(Cl)cc2Cl)cc1 (centres undefined) | 1.73% (inactive) | > 9.62 µM
19 | CC(C)NCC(O)Cn1c2c(c3ccccc31)CCc1c-2cnn1-c1ccccc1 (centres undefined) | 11.7% (inactive) | > 9.62 µM

Row | SMILES | Her2 inhibition [1] | EC50 [2]
20 | CCc1nc(N)c(C#N)c(-c2cccnc2)c1C | 2.53% (inactive) | > 9.62 µM
21 | COc1ccccc1-n1c(SCC(=O)NC(C)(C)C)nc(O)cc1=O | 8.19% (inactive) | > 9.62 µM
22 | COc1ccccc1-n1nnnc1S(=O)(=O)Cc1ccc(Cl)cc1 | 23.5% (inactive) | > 9.62 µM
23 | CCOC(=O)c1c(-c2cccs2)csc1NC(=O)c1ccco1 | 17.4% (inactive) | > 9.62 µM
24 | COCCn1c(Cc2ccccc2)nnc1SCC(=O)N(C)C | 6.46% (inactive) | > 9.62 µM
25 | O=C(O)c1ccc2c3c(ncnc13)-c1ccccc1C2=O | -3.54% (inactive) | > 9.62 µM
26 | Cc1ccc(C(c2sc3nc(C)nn3c2O)N2CCN(c3ccccc3F)CC2)cc1 (centres undefined) | -4.31% (inactive) | > 9.62 µM
27 | CCOC(=O)N1CCN(c2nnnn2-c2ccccc2)CC1 | -3.51% (inactive) | > 9.62 µM
28 | N#CC(C#N)=c1ccc2c(c1)NC1(CCCCC1)N=2 | 43.8% (inactive) | > 9.62 µM
29 | COc1ccc(-n2nnc3c(SCC(=O)Nc4ccc5c(c4)OCCO5)ncnc32)cc1 | -9.58% (inactive) | > 9.62 µM
30 | Cc1cc(C)n(-c2c(F)c(F)c(CN3CCOCC3)c(F)c2F)n1 | -10.7% (inactive) | > 9.62 µM
31 | COc1ccc(CSc2nnnn2Cc2ccccc2)cc1OC | -31.4% (inactive) | > 9.62 µM
32 | CCOc1ccc(NC(=O)C/C(N)=N/O)cc1 | -1.78% (inactive) | > 9.62 µM
33 | CCn1c2ccccc2c2cc(C3C(C#N)=C(N)Oc4n[nH]c(COC)c43)ccc21 (centres undefined) | 29.6% (inactive) | > 9.62 µM
34 | CCOC(=O)N1CCN(CCC(=O)c2ccc(Cl)cc2)CC1 | 9.27% (inactive) | > 9.62 µM
35 | OC(CCN1CCCC1)(c1ccccc1)C1CCCCC1 (centres undefined) | -24.9% (inactive) | > 9.62 µM
36 | O=C1CC(Sc2nnc(-c3ccccc3O)o2)C(=O)N1c1ccccc1 (centres undefined) | -8.42% (inactive) | > 9.62 µM
37 | O=S(=O)(Nc1ccc2c(c1)CCC2)c1cccs1 | 10.2% (inactive) | > 9.62 µM
38 | COc1ccc(-c2nc(C(N)=O)c3[nH]c(=O)n(-c4cccc(Cl)c4)c3n2)cc1OC | -17.3% (inactive) | > 9.62 µM

Row | SMILES | Her2 inhibition [1] | EC50 [2]
39 | Cc1ccc(S(=O)(=O)c2c(C)nn(C(C)(C)C)c2OC(=O)c2ccc(Br)o2)cc1 | 4.78% (inactive) | > 9.62 µM
40 | O=C(Nc1ccc(Cl)cc1)Nc1ccc2c(c1)N1CCN=C1S2 | -7.78% (inactive) | > 9.62 µM
41 | CCOc1ccccc1NC(=O)Cn1nnc(-c2ccc(OCC)c(OCC)c2)n1 | -13.9% (inactive) | > 9.62 µM
42 | O=S(=O)(CCSc1ccccn1)c1nc2ccccc2s1 | 12.7% (inactive) | > 9.62 µM
43 | COc1ccc2oc(=O)c(-c3nnc(NCc4ccco4)s3)cc2c1 | -2.67% (inactive) | > 9.62 µM
44 | N#Cc1c(N)sc(=S)c2c1CCN(Cc1ccccc1)C2 | -20.9% (inactive) | > 9.62 µM
45 | CC(C)N1CCC2(CC1)N=C(c1ccc3c(c1)OCO3)CC(c1cc(Cl)ccc1O)N2 (centres undefined) | 20.5% (inactive) | > 9.62 µM
46 | CN1/C(=C/C(=O)c2nc(S(C)(=O)=O)ncc2Cl)C(C)(C)c2ccccc21 | 23.3% (inactive) | > 9.62 µM
47 | Oc1cccc2ccc(Nc3ccccn3)nc12 | 31.3% (inactive) | > 9.62 µM
48 | CCCCNC(=O)OCCNC(=O)NC | -40% (inactive) | > 9.62 µM
49 | O=C(NCc1ccco1)C(Cc1ccccc1)N1C(=O)c2ccccc2C1=O (centres undefined) | -6.2% (inactive) | > 9.62 µM
50 | O=C1CC(Sc2nnnn2C2CCCCC2)C(=O)N1c1ccccc1 (centres undefined) | -12.8% (inactive) | > 9.62 µM
51 | O=S(=O)(c1ccc2c(c1)C(=NO)c1cc(S(=O)(=O)N3CCCCC3)ccc1-2)N1CCCCC1 | 27.4% (inactive) | < 0.024 µM
52 | O=C(c1ccco1)N(Cc1ccco1)c1ccc(O)cc1 | -0.36% (inactive) | > 9.62 µM
53 | Cc1cccc(C)c1NC1=NCCCS1 | 6.69% (inactive) | > 9.62 µM
54 | Cn1c(=O)c2c(SCc3cccc(C(F)(F)F)c3)nc(-c3ccco3)nc2n(C)c1=O | -20.9% (inactive) | > 9.62 µM
55 | Oc1ccc2ccccc2c1C=NCc1cn2ccsc2n1 | -11.2% (inactive) | > 9.62 µM
56 | CC(O)CCc1nc2ccc(C(=O)O)cc2[nH]1 (centres undefined) | -23.7% (inactive) | > 9.62 µM
57 | CCN(CCNC(=O)C1CCN(Cc2nc(-c3cccc(Cl)c3)oc2C)CC1)c1ccccc1 | -54.8% (inactive) | > 9.62 µM
